Tested on: mixture of bacteria
Assay: D-value method test (rapid preservation screening, bacteria growth detection time by conductometry)
Format: cell-based
Details: FIG. 1; sodium gluconate (formula B) compared with Na4EDTA (formula A, reference)
Text: This D-value method test is used for rapid screening. It compares the new product to a reference which gives satisfactory result in real life conditions and which must have a formula composition as close as possible to the tested product (in this example EDTA has been replaced by sodium gluconate). The tested product and the reference are inoculated by a mixture of bacteria. Once they have been inoculated the bacteria slowly disappear due to the beneficial influence of the preservative system. The longer the contact time, the lower the residual bacteria number. The better the preservation system, the lower the residual bacteria number at a given time. The inocculated products are then sampled at different times and the samples are diluted by a nutriant which helps bacteria proliferation. The time needed to detect bacteria in the diluted sample is then measured by conductometry (bacteria growth generally leads to a increase of conductivity). The longer the detection time in sample diluted by nutrient, the lower the residual alive bacteria number after sampling, the better the preservative system.

O=C([O-])[C@H](O)[C@@H](O)[C@H](O)[C@H](O)CO.[Na+] [sodium gluconate]
D bacteria values: Myacid BT potentiator performance: superior Myacid BT potentiator
